{
  "source": "patent US20050182020A1",
  "about": "“Ceramide de novo synthesis-based therapeutic and prophylactic methods, and related articles of manufacture” (priority 2003, published 2005)",
  "key": {"[1]": {"tested_on": "HSN1 lymphoblasts (HSN 4561)", "assay": "SRE-promoter reporter (adenovirus transfection) in HSN1 lymphoblasts", "format": "cell-based, human", "details": "7 h", "procedure": "(§1) FIG. 10. Increased SRE-mediated gene transcription in HSN1 cells (HSN 4561). Cells were transfected with an SRE-element containing promoter-reporter gene. This construct is identical to the promoter-reporter gene used in all previous studies. In order to achieve transfection in lymphoblasts, this promoter construct was subcloned into an adenovirus vector. Cells (control lymphoblasts and HSN1 lymphoblasts) were transfected for 3 h with this adenovirus vector and left in growth medium overnight. Medium was then switched to experimental medium containing 1% fatty acid free BSA (control conditions) or cholesterol/25-OH cholesterol (10 ug/ml/1 ug/ml) or oleic acid. After 7 h the luciferase activity which reflects binding of SREBP to the SRE-promoter element was measured. Because adenovirus mediated transfections are transient transfections the necessity for a transfection control arises. The adenovirus vector contains a β-gal control gene that is not regulated by experimental conditions and serves as a transfection control (standard practice)."}, "HSN1 cells (4561)": {"tested_on": "HSN1 cells (4561)", "assay": "Cholesterol / cholesterylester synthesis from 3H-mevalonate in HSN1 cells", "format": "cell-based, human", "procedure": "(§2) FIG. 12. Increased free cholesterol synthesis in HSN cells. In order to investigate whether increased SRE-mediated gene transcription also results in increased cholesterol synthesis cells were incubated with radioactive mevalonate, a precursor which represents a committed step in cholesterol synthesis (see FIG. 11). Control and HSN1 cells were incubated for 7 h and 18 h in the presence of trace amounts of ^3H-mevalonate. Lipids were extracted and separated by thin […] chromatography (TLC). Radioactive counts in the cholesterol fraction were analyzed by liquid scintillation counting.\nFIG. 14. Oleic acid increases HSN 4561 synthesis of high levels of free cholesterol but not cholesteryl ester. Cells were incubated for 4 h with ^3H-mevalonate and grown in the presence or absence of 0.3 mM oleic acid.\n(§3) FIG. 16. Incubation with mevastatin decreases free cholesterol synthesis in HSN cells as well as in controls. Cells were treated for 16 h in the presence of ^3H-mevalonate to assess cholesterol de novo synthesis and several inhibitors of either cholesterol or ceramide synthesis (Mevastatin=Statin), C6 ceramide (previously shown by us to decreased SREBP levels and SRE-mediated gene transcription), cycloserine (inhibitor of serine-palmiltoyl transferase), cholesterol (classical inhibitor of de novo synthesis by negative feedback)."}, "[2]": {"tested_on": "control lymphoblasts (HSN 4513)", "assay": "SRE-promoter reporter (adenovirus transfection) in control lymphoblasts", "format": "cell-based, human", "details": "oleic acid, 7 h", "procedure": "as §1"}, "NPA fibroblasts": {"tested_on": "NPA fibroblasts", "assay": "SRE-promoter reporter (adenoviral transfection) in NPA fibroblasts", "format": "cell-based", "details": "addition of cholesterol; reversible on switch to BSA", "procedure": "FIG. 20. SRE-mediated gene transcription is increased in NPA fibroblasts. The hypothesis was evaluated that increased ceramide de novo synthesis affects SREBP and SRE-mediated gene transcription in Niemann Pick Type A cells. Cells were transfected with an SRE-promoter construct (using adenoviral transfection as above in HSN cells). […] Addition of cholesterol decreases SRE-mediated gene transcription and this process is also reversible."}, "[3]": {"tested_on": "Niemann Pick Disease Type A fibroblasts", "assay": "Ceramide de novo synthesis (3H-serine) in NPA fibroblasts", "format": "cell-based", "details": "overnight incubation with agent, vs 1% BSA", "procedure": "FIG. 19. Ceramide synthesis is increased in NPA fibroblasts. Fibroblasts from different control individuals and from two different cell lines derived from Niemann Pick Disease Type A were incubated for 4 h in the presence of ^3H-serine to measure de novo ceramide synthesis after having been incubated overnight in either control medium (1% BSA) or in the presence of cholesterol or C8-Ceramide. Lipid extraction and separation were carried out."}, "[4]": {"tested_on": "SRE-mediated gene transcription", "assay": "SRE-promoter luciferase reporter gene assay in LY-B cells (CHO cells mutated in LCB1 subunit of serine-palmitoyl transferase)", "format": "cell-based, Chinese hamster", "details": "cholesterol 10 μg/ml and 25-OH cholesterol 1 μg/ml, 16 h", "procedure": "(§4) FIG. 5. LY-B cells fail to recover SRE-mediated gene transcription in cholesterol depletion but recover SRE-mediated gene transcription in the presence of DMS. […] Both cell lines have been transfected to stably express an SRE-promoter construct linked to the luciferase reporter gene. On day 2, cells were incubated for 16 h with 1% BSA (control) or in the presence of cholesterol (10 μg/ml) and 25-OH cholesterol (1 μg/ml) to decrease SRE-mediated gene transcription. Then, incubation medium was switched to 1% BSA or DMS (5 μM) for 6 h. After cell lysis, luciferase activity was analyzed, expressed as a ratio of protein content. Data represent the average (±S.D.) of at least 4 different experiments, each performed in triplicate.\nEnzyme assays: Cells to be analyzed for luciferase activity were lyzed in lysis buffer A containing 0.1% Triton X-100, 50 mM Hepes, 10 mM MgSO4, pH 7.7. Cells were scraped, collected, vortexed and briefly centrifuged to pellet cell debris. An aliquot was used to measure luciferase activities in a luminometer (Berthold LB 9501, Wallac Inc., Gaithersburg, Md.) with a luciferin reagent from Promega (Madison, Wis.). Luciferase activity in relative light units (RLU) was divided by protein content (mg/ml) for each extract. […]"}, "[5]": {"tested_on": "SRE-mediated gene transcription", "assay": "SRE-promoter luciferase reporter gene assay in stably transfected CHO cells", "format": "cell-based, Chinese hamster", "details": "for SRE-mediated gene transcription (luciferase RLU/protein): myriocin 1 μM, cycloserine 500 mM, fumonisin B1 10 μM, PPMP 20 μM, NB-DNJ 40 μM, cholesterol/25-OH cholesterol 10/1 μg/ml, vs 1% BSA", "procedure": "FIG. 3. Inhibition of ceramide synthesis and SRE-mediated gene transcription. (A) Decreased ceramide synthesis correlates with decreased levels of SRE-mediated gene transcription and mSREBP. […] After cell lysis, luciferase activity was analyzed, and expressed as a ratio of protein content. Data represent the average (±S.D.) of at least 4 different experiments, each performed in triplicate. […] CHO cells stably transfected with an SRE-promoter construct linked to the luciferase reporter gene were incubated for 8 h in the presence of control conditions (1% BSA) or increasing levels of myriocin (0.25-1 μM). After cell lysis, luciferase activity was analyzed, expressed as a ratio of protein content. Data represent the average (±S.D.) of at least 3 different experiments, each performed in triplicate.\nFIG. 4. Increased ceramide synthesis and SRE-mediated gene transcription. (A) Increased ceramide de novo synthesis correlates with increased SRE-mediated gene transcription. On day 1, CHO cells stably transfected with an SRE-promoter construct linked to the luciferase reporter gene were plated at 80% confluency. […] Cells were harvested, lysed and analyzed for luciferase activity (measured in relative light units, RLU) and protein content. Data are expressed as percentage of control and represent the average (±S.D.) of three different experiments, each performed in triplicate. Inset: Western blot analysis: On day 1, CHO cells were plated in regular growth medium. On day 2, cells were incubated for 8 h with control medium (1% BSA) or DMS (5 μM). Whole cell extracts (30 μg protein) were loaded on a 4-14% continuous gradient SDS-PAGE gel. P and M denote the precursor (125 kd) and mature (68 kd) form of SREBP-1 in a representative experiment. (B) DMS increases ceramide de novo synthesis. CHO cells were treated for 3.5 h either with control conditions (1% BSA) or DMS (2.5-5 μM). […] Data are expressed as dpm/protein and represent a typical experiment.\nas §4\nCell culture and stable transfections: Cells were grown in F12-nutrient mixture medium containing 10% fetal bovine serum (FBS), 1% glutamine (v/v), 1% penicillin/streptomycin (v/v), and 10% fetal bovine serum (v/v) at 37° C. in humidified CO2 (5%). To obtain stable transfectants, cells were plated in 12-well plates at 50% confluency and transfected for 5 h in the presence of serum-free Dulbecco's modified Eagle's medium (DMEM) with pSyn SRE (1 μg/well) and pWLNeo (0.25 μg/well) using Lipofectamin (1.5 μl/well). Cells were then incubated for 2 days in growth medium. On day three, neomycin-containing medium (400 μg/ml) was added. Selection for neomycin resistant colonies was continued for three weeks. Pooled clones were analyzed for luciferase expression. Experiments were performed with pooled clones as well as with cells derived from a single clone. Cells were grown in the presence of 400 μg/ml neomycin. For experimental use, cells were plated in the absence of neomycin at least 24 h ahead in regular growth medium.\nEnzyme assays: Cells to be analyzed for luciferase activity were lyzed in lysis buffer A containing 0.1% Triton X-100, 50 mM Hepes, 10 mM MgSO4, pH 7.7. Cells were scraped, collected, vortexed and briefly centrifuged to pellet cell debris. […]"}, "[6]": {"details": "rats fed toxic levels, 20 week study (ref. 8); cited from earlier work"}, "[7]": {"details": "several animal studies; cited from earlier work"}, "control cells (4513)": {"tested_on": "control cells (4513)", "assay": "Cholesterol synthesis from 3H-mevalonate in control lymphoblasts", "format": "cell-based, human", "details": "16 h", "procedure": "as §2, §3"}, "[8]": {"tested_on": "cellular sphingomyelin levels", "assay": "Cellular sphingomyelin levels (TLC, phosphorus)", "format": "cell-based", "details": "within 24 h; data not shown", "description": "An aliquot was used for luciferase and protein determination. […] Lipids were then dried under N2. […] Absolute cpm values range between 400 and 800 cpm. […] In brief, lipids were extracted as above. Lipid extracts were run on TLC.\nWhat is the role of cellular sphingomyelin levels on SRE-mediated gene transcription? […] LY-B cells have decreased sphingomyelin levels. Yet, SRE-mediated gene transcription is decreased in LY-B cells as well as in myriocin treated cells."}, "HMG-CoA synthase mRNA": {"tested_on": "HMG-CoA synthase mRNA", "assay": "Northern blot of HMG-CoA synthase mRNA in CHO cells", "format": "cell-based, Chinese hamster", "details": "myriocin 1 μM, 16 h", "quoted_text": "CHO cells were incubated for 8 h with control medium (1% BSA) or myriocin (1 μM). 30 μg of total RNA were loaded per lane, electrophoresed on a 1.2% agarose/formaldehyde gel and transferred to a nylon membrane. The membrane was hybridized with ^32P-labeled probes for HMG-CoA synthase and glyceraldehyde-3-phosphate dehydrogenase (GAPDH) as outlined under “Experimental Details.” Lane 1: Control; lane 2: Myriocin (1 μM). The level of HMG-CoA synthase mRNA relative to control values was calculated after quantitative phosphorimager analysis and correction of loading differences determined by the glyceraldehyde-3-phosphate dehydrogenase signal.\nNorthern blots: CHO cells were plated on day 1 at 80% confluency and treated with the respective conditions for 8 h. Total RNA was isolated by Trizol reagent (Invitrogen, Grand Island, N.Y.) as described by the manufacturer. RNA concentration was calculated from optical density at 260 nm. 30 μg of total RNA were separated by 1.2% denaturing agarose/formaldehyde electrophoresis and transferred by capillary transfer to Duralon UV-membranes (Stratagene, La Jolla, Calif.). The cDNA probe for northern hybridization of HMG-CoA synthase was obtained by RT-PCR from human THP-1 macrophages mRNA using previously described primers (4). […]"}, "SREBP": {"tested_on": "SREBP", "assay": "Fluorescently labeled SREBP in cell culture after addition of DAG", "format": "cell-based", "details": "preliminary data in cell culture", "procedure": "Data: Propanolol ([…]) inhibits SRE-mediated gene transcription to 40% (+3%) within 30 min. Resvaratrol ([…]) inhibits SRE-mediated gene transcription to 7% (±16%) within 4 h.\nPreliminary data: Inhibition of PAP by propanolol or inhibition of PKD by resvaratrol both decrease SRE-mediated gene transcription. Addition of a DAG analogue that is exogenously added and thus distributes to membranes other than the Golgi results in reorientation of fluorescently labeled mature SREBP."}},
  "data": [
    {"compound": "CCCCCCCC/C=C\\CCCCCCCC(=O)O", "note": "[Oleic acid]", "values": [
      {"measurement": "SRE-mediated gene transcription (luciferase/β-gal) in HSN 1 (4561)", "setting": "[1]; oleic acid", "value": "does not decrease"},
      {"measurement": "synthesis of cholesterol from 3H-mevalonate", "setting": "HSN1 cells (4561); HSN 4561, 0.3 mM oleic acid, 4 h", "value": "stimulates"},
      {"measurement": "SRE-mediated gene transcription (luciferase/β-gal) in controls", "setting": "[2]", "value": "does not decrease"}
    ]},
    {"compound": "CC(C)CCC[C@@H](C)[C@H]1CC[C@H]2[C@@H]3CC=C4C[C@@H](O)CC[C@]4(C)[C@H]3CC[C@]12C", "note": "[cholesterol]", "values": [
      {"measurement": "SRE-mediated gene transcription", "setting": "NPA fibroblasts", "value": "decreases"},
      {"measurement": "ceramide de novo synthesis (3H-serine, 4 h)", "setting": "[3]", "value": "does not significantly decrease"},
      {"measurement": "decrease of SRE-mediated gene transcription in LY-B cells compared to control cells", "setting": "[4]", "value": "significantly stronger"},
      {"measurement": "SRE-mediated gene transcription (luciferase/β-gal) in HSN 1 (4561)", "setting": "[1]; cholesterol/25-OH cholesterol 10/1 ug/ml", "value": "very efficient in decreasing"},
      {"measurement": "sensitivity of cholesterol de novo synthesis in HSN1 cells (4561) relative to control cells", "setting": "HSN1 cells (4561); 16 h, 3H-mevalonate", "value": "more sensitive"}
    ]},
    {"compound": "CCCC[C@@H](C)[C@@H](OC(=O)C[C@@H](CC(=O)O)C(=O)O)[C@H](C[C@@H](C)C[C@H](O)CCCC[C@@H](O)C[C@H](O)[C@H](C)N)OC(=O)C[C@@H](CC(=O)O)C(=O)O", "note": "[fumonisin B1]", "values": [
      {"measurement": "SRE-mediated gene transcription (luciferase RLU/protein)", "setting": "[5]; 8 h", "value": "significantly reduced"},
      {"measurement": "plasma cholesterol levels", "setting": "[6]", "value": "significantly decreased"},
      {"measurement": "hepatotoxicity", "setting": "[7]", "value": "hepatotoxicity"}
    ]},
    {"compound": "CC[C@H](C)C(=O)O[C@H]1CCC=C2C=C[C@H](C)[C@H](CC[C@@H]3C[C@@H](O)CC(=O)O3)[C@H]21", "note": "[mevastatin]", "values": [
      {"measurement": "free cholesterol synthesis in controls", "setting": "control cells (4513)", "value": "decreases"},
      {"measurement": "free cholesterol synthesis in HSN cells", "setting": "HSN1 cells (4561); 16 h, 3H-mevalonate", "value": "decreases"}
    ]},
    {"compound": "CCCCCCC(=O)CCCCCC/C=C/C[C@@H](O)[C@H](O)[C@@](N)(CO)C(=O)O", "note": "[myriocin]", "values": [
      {"measurement": "cellular sphingomyelin levels", "setting": "[8]", "value": "does not change"},
      {"measurement": "SRE-mediated gene transcription (luciferase RLU/protein)", "setting": "[5]; 8 h", "value": "significantly reduced"},
      {"measurement": "expression of another control β-gal reporter gene", "setting": "[5]; data not shown", "value": "did not decrease"},
      {"measurement": "SRE-mediated gene transcription, dose dependence", "setting": "[5]; myriocin 0.25-1 μM, 8 h", "value": "dose-dependently decreases"},
      {"measurement": "HMG-CoA synthase mRNA levels relative to control", "setting": "HMG-CoA synthase mRNA", "value": "half"}
    ]},
    {"compound": "diacylglycerol [DAG]", "values": [
      {"measurement": "effect on fluorescently labeled SREBP", "setting": "SREBP", "value": "attracts fluorescently labeled SREBP"}
    ]}
  ]
}
